Results reported in patent US20140378406A1, “SILVER BASED GELS FOR ANTIMICROBIAL APPLICATIONS” (The University of Akron, priority 2012, published 2014).

Assays:
Experiment in all cases: Minimal inhibitory concentration (MIC), CLSI procedures
Format in all cases: cell-based
Escherichia coli = tested on: Escherichia coli
Protocol: (§1) The combination of aqueous solutions of 50 mM glutathione and 50 mM silver carbene complex SCC22 at ambient conditions in a 1:1.25 ratio (final concentration 20 mM glutathione and 25 mM SCC22) results in a colorless hydrogel material. The gel was tested to determine its minimal inhibitory concentration (MIC) on three bacterial species including Pseudomonas aeruginosa, Staphylococcus aureus, and Escherichia coli using procedures published by the Clinical and Laboratory Standards Institute. The combination of aqueous solutions of 50 mM glutathione and 50 mM silver carbene complex SCC1 at ambient conditions in a 1:1.67 ratio (final concentration 15 mM glutathione and 25 mM SCC1) results in a colorless hydrogel material. The gel was tested to determine its minimal inhibitory concentration (MIC) on three bacterial species including Pseudomonas aeruginosa, Staphylococcus aureus, and Escherichia coli using procedures published by the Clinical and Laboratory Standards Institute. The combination of aqueous solutions of 50 mM glutathione and 50 mM silver carbene complex SCC8 at ambient conditions in a 1:1.25 ratio (final concentration 20 mM glutathione and 25 mM SCC8) results in a colorless hydrogel material (GSH8). The gel was tested to determine its minimal inhibitory concentration (MIC) on three bacterial species including Pseudomonas aeruginosa, Staphylococcus aureus, and Escherichia coli using procedures published by the Clinical and Laboratory Standards Institute.

Pseudomonas aeruginosa = tested on: Pseudomonas aeruginosa
Protocol: as §1

Staphylococcus aureus = tested on: Staphylococcus aureus
Protocol: as §1

NC[C@H]1O[C@H](O[C@H]2[C@H](O)[C@@H](O[C@H]3O[C@H](CO)[C@@H](O)[C@H](N)[C@H]3O)[C@H](N)C[C@@H]2N)[C@H](N)C[C@@H]1O [Tobramycin]
4 µg/mL: MIC E. coli (Escherichia coli) | MIC P. aeruginosa (Pseudomonas aeruginosa) | MIC S. aureus (Staphylococcus aureus)
